Measured values as given in US8247429B2, “Tricyclic compound and pharmaceutical use thereof” (Takeda Pharmaceutical Company Limited, priority 2006, dated 2012).

Key:
[1] = target: T1, human melatonin 2 receptors (human MT2 receptors) (Homo sapiens, UniProt P49286); experiment: Melatonin receptor binding inhibitory test (2-[125I] Iodomelatonin), MT2; conditions: membrane fraction of CHO-hMT2 cells, 25° C. for 2.5 hr
T1 construct: expressed in transfected cells; membrane fraction used
T1 sequence (P49286 1-362): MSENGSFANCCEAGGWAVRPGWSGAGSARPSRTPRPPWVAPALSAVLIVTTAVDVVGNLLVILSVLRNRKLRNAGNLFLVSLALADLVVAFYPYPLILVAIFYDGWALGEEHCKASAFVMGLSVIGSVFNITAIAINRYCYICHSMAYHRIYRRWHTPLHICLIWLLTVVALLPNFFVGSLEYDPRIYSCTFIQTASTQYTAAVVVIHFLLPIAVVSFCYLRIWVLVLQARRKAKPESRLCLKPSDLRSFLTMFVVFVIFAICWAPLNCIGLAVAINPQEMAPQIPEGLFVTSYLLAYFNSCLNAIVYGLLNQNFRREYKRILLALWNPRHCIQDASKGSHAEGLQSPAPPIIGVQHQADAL
Procedure: (§1) Melatonin receptor binding inhibitory test
(2) Preparation of CHO-hMT2 Cells Expressing Human Melatonin 2 Receptors
A cDNA fragment (SEQ ID NO: 2) encoding full-length of human melatonin 2 receptors (human MT2 receptors) was incorporated into expression vector pCMV-Script (Stratagene, #212220) to give the plasmid that was pCMV-human MT2 receptors expression vector for animal cell expression. CHO-K1 cells (ATCC, #CCL-61) were plated at the concentration of 1.5×10^5 cells/cm^2 in a 6 well plate (ASAHI TECHNO GLASS), and cultured under the conditions of 37° C., 5% CO2 for 24 hr. For gene transfection, solution obtained by blending pCMV-human MT2 receptors expression vector (1.9 μg), Lipofectamine Transfection Reagent (Invitrogen, #18324-012) (11.3 μL) and Minimum Essential Medium Eagle (MEM) medium (Sigma, M8042) (93.8 μL), and reacting at room temperature for 20 min was added to the cells per one well. The transfected cells were cultured in MEM medium containing 10% FBS (Life Technology) and 300 μg/mL Geneticin (GIBCO, #10131), and the cell line that stably expressed the plasmid gene was selected. By a receptor binding assay using 2-[^125I] Iodomelatonin, CHO-hMT2 cell line showing specific binding of 2-[^125I] Iodomelatonin was selected from the obtained clones.
(§2) (3) Preparation of Cellular Membrane Fraction of CHO Cell (CHO-hMelR7 and CHO-hMT2) Stably Expressing Human MT1 and MT2 Receptors
(§3) CHO-hMelR7 and CHO-hMT2 cells were plated using Cellfactory (Nunc, #170009) under the conditions of 1×10^8 cells/2000 mL/flask. The cells were grown to confluent, and recovered by the following method. As the medium for CHO-hMelR7 and CHO-hMT2, MEM α containing 10% FBS and penicillin/streptomycin was used. […] of geneticin was added to the medium for CHO-hMT2.
(§4) The medium was discarded, cells were washed twice with 200 mL of EDTA/PBS(−), 200 mL of EDTA/PBS(−) was further added, and the cells were stood still at room temperature for 20 min until they were released. The cells were recovered in four 50 mL tubes (Becton Dickinson, #352070), and centrifuged at 1,500 rpm for 10 min at 4° C. using a low speed cooling centrifuge (Hitachi, CF7D2). The supernatant was discarded, the pellets in the four tubes were suspended in 10 mL of PBS(−), and combined in one tube (Becton Dickinson, #352070). The mixture was further centrifuged at 1,500 rpm for 10 min at 4° C., and the obtained pellets were suspended in 20 mL of ice-cooled homogenizing buffer [10 mM NaHCO3, 5 mM EDTA, Protease inhibitor Complete (Roche), pH 7.4]. The cell suspension was homogenized 3 times using a polytron homogenizer at 20,000 rpm for 30 sec. The obtained homogenate was centrifuged (2,000 rpm, 10 min, 4° C.) using a low speed cooling centrifuge. The supernatant was recovered in an ultracentrifugation tube and ultracentrifuged (40,000 rpm, 60 min, 4° C.) using an ultracentrifuge (Beckman, L-90K). To the obtained pellets was added a suspending buffer [50 mM Tris-HCl, 1 mM EDTA, Protease inhibitor Complete (Roche), pH 7.4], and the pellets were suspended by pipetting. The protein concentration of this suspension was measured, diluted to 2 mg/mL to give cellular membrane fractions of CHO-hMelR7 and CHO-hMT2 cells. The membrane fractions were dispensed to 1.5 mL tubes (Eppendorf, #0030120.086) by 100 μL, preserved in a freezer (−80° C.) and used for a binding assay. Protein was quantified using BCA protein assay kit (Pierce) with BSA as the standard.
(§5) (4) Preparation of Membrane Fraction Suspension
(§6) Immediately before use, the membrane fractions of CHO-hMelR7 and CHO-hMT2 cells of the above-mentioned (3) were diluted 20-fold with assay buffer (50 mM Tris-HCl, pH 7.7).
(§7) (5) Preparation of 2-[^125I] Iodomelatonin Solution
(§8) 2-[^125I] Iodomelatonin (#NEX236, PerkinElmer) was diluted with the assay buffer to 400 pM for MT1 and 1 nM for MT2.
(§9) The assay buffer (80 μL) of the above-mentioned (4) was added to each well of a 96-well plate (type 3363, Corning). […]

[2] = target: T2, human melatonin 1 receptors (human MT1 receptors) (Homo sapiens, UniProt P48039); experiment: Melatonin receptor binding inhibitory test (2-[125I] Iodomelatonin), MT1; conditions: membrane fraction of CHO-hMelR7 cells, 25° C. for 2.5 hr
T2 construct: expressed in transfected cells; membrane fraction used
T2 sequence (P48039 whole entry): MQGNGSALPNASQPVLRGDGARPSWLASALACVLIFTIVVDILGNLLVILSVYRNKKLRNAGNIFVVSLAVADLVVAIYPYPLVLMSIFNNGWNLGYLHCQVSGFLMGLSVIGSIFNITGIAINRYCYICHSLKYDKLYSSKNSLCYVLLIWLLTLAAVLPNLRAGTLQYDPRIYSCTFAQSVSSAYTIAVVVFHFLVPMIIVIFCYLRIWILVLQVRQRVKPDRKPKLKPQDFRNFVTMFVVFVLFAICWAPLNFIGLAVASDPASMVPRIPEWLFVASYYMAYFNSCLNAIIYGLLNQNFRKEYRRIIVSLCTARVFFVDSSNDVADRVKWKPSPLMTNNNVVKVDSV
Procedure: as §1
(1) Preparation of CHO-hMelR7 Cells Expressing Human Melatonin 1 Receptors
A cDNA fragment (SEQ ID NO: 1) encoding full-length of human melatonin 1 receptors (human MT1 receptors) was incorporated into expression vector pAKKO-111H (former name pAKKO1.11H; Biochim Biophys Acta. Vol. 1219(2), pp. 251-259, 1994) to give plasmid pAKKO-hMelR7 for animal cell expression. CHO/dhfr-cells (ATCC, #CRL-9096) were plated at a concentration of 0.3×10^6 cells/dish in a 6 cm culture dish (Becton Dickinson), and cultured under the conditions of 37° C., 5% CO2 for 48 hr. The cells were transfected with pAKKO-hMelR7 plasmid DNA (5 μg) using Cellphect Transfection Kit (Amersham, #27-9268-01). The transfected cells were cultured in Dulbecco's modified Eagle medium (DMEM) (Sigma, #D6046) containing 10% dialyzed FBS (Biowest, #S180D), 1× Non-Essential Amino Acid (Invitrogen, #11140-050) and 50 μg/mL Gentamycin (Invitrogen, #15750-060), and the cell line that stably expressed the plasmid gene was selected. By a receptor binding assay using 2-[^125I] Iodomelatonin, CHO-hMelR7 cell line showing specific binding of 2-[^125I] Iodomelatonin was selected from the obtained clones.
as §2, §3, §4, §5, §6, §7, §8, §9

Row | Structure (SMILES) | IC50 [1] | IC50 [2] | melting point
1 | CC(=O)NCC=C1CCc2ccc3nn(C)cc3c21 [Example 1, N-[2-(2-methyl-6,7-dihydrocyclopenta[e]indazol-8(2H)-ylidene)ethyl]acetamide] | ≤ 100 nM | ≤ 100 nM | 200 to 202 °C
2 | CC(=O)NCCC1CCc2ccc3nn(C)cc3c21 (stereo not shown) [Example 2, N-[2-(2-methyl-2,6,7,8-tetrahydrocyclopenta[e]indazol-8-yl)ethyl]acetamide] | ≤ 100 nM | ≤ 100 nM | –
3 | CC(=O)NCC[C@@H]1CCc2ccc3nn(C)cc3c21 [Example 3] | ≤ 100 nM | ≤ 100 nM | –
4 | CCC(=O)NCC=C1CCc2ccc3nn(C)cc3c21 [Example 5, N-[2-(2-methyl-6,7-dihydrocyclopenta[e]indazol-8(2H)-ylidene)ethyl]propanamide] | ≤ 100 nM | ≤ 100 nM | 185 to 187 °C
5 | CCC(=O)NCCC1CCc2ccc3nn(C)cc3c21 (stereo not shown) [Example 6, N-[2-(2-methyl-2,6,7,8-tetrahydrocyclopenta[e]indazol-8-yl)ethyl]propanamide] | ≤ 100 nM | ≤ 100 nM | –
6 | CC(=O)NCC=C1CCc2ccc3nn(C)c(C)c3c21 [Example 7, N-[2-(1,2-dimethyl-6,7-dihydrocyclopenta[e]indazol-8(2H)-ylidene)ethyl]acetamide] | ≤ 100 nM | ≤ 100 nM | 200 to 203 °C
7 | CC(=O)NCCC1CCc2ccc3nn(C)c(C)c3c21 (stereo not shown) [Example 8, N-[2-(1,2-dimethyl-2,6,7,8-tetrahydrocyclopenta[e]indazol-8-yl)ethyl]acetamide] | ≤ 100 nM | ≤ 100 nM | 146 to 149 °C
8 | CC(=O)NCCC1CCc2ccn3ncc(C)c3c21 (stereo not shown) [Example 10, N-[2-(1-methyl-8,9-dihydro-7H-cyclopenta[c]pyrazolo[1,5-a]pyridin-9-yl)ethyl]acetamide] | – | – | 121 to 122 °C
9 | CCOC(=O)c1c(C)nn2ccc3c(c12)C(CCNC(C)=O)CC3 (stereo not shown) [Example 13, ethyl 9-[2-(acetylamino)ethyl]-2-methyl-8,9-dihydro-7H-cyclopenta[c]pyrazolo[1,5-a]pyridine-1-carboxylate] | – | – | 101 to 103 °C
10 | CC(=O)NCCC1CCc2ccn3nc(C)cc3c21 (stereo not shown) [Example 18, N-[2-(2-methyl-8,9-dihydro-7H-cyclopenta[c]pyrazolo[1,5-a]pyridin-9-yl)ethyl]acetamide] | ≤ 100 nM | ≤ 100 nM | –
11 | CC(=O)NCC[C@@H]1CCc2ccn3nc(C)cc3c21 [Example 19, N-{2-[(9S)-2-methyl-8,9-dihydro-7H-cyclopenta[c]pyrazolo[1,5-a]pyridin-9-yl]ethyl}acetamide] | ≤ 100 nM | ≤ 100 nM | –
12 | CCc1cc2c3c(ccn2n1)CCC3CCNC(C)=O (stereo not shown) [Example 21, N-[2-(2-ethyl-8,9-dihydro-7H-cyclopenta[c]pyrazolo[1,5-a]pyridin-9-yl)ethyl]acetamide] | ≤ 100 nM | ≤ 100 nM | –
13 | CC(=O)NCCC1CCc2ccc3nc(C)cn3c21 (stereo not shown) [Example 22, N-[2-(2-methyl-7,8-dihydro-6H-cyclopenta[e]imidazo[1,2-a]pyridin-8-yl)ethyl]acetamide] | ≤ 100 nM | ≤ 100 nM | –
14 | CC(=O)NCC[C@@H]1CCc2ccc3nn(C)c(Br)c3c21 [Example 25, N-{2-[(8S)-1-bromo-2-methyl-2,6,7,8-tetrahydrocyclopenta[e]indazol-8-yl]ethyl}acetamide] | ≤ 100 nM | ≤ 100 nM | –
15 | CCC(=O)NCCC1CCc2ccn3nc(C)cc3c21 (stereo not shown) [Example 32, N-[2-(2-methyl-8,9-dihydro-7H-cyclopenta[c]pyrazolo[1,5-a]pyridin-9-yl)ethyl]propanamide] | ≤ 100 nM | ≤ 100 nM | –
16 | CC(=O)NCCC1CCc2ccn3nc(-c4ccccc4)cc3c21 (stereo not shown) [Example 34, N-[2-(2-phenyl-8,9-dihydro-7H-cyclopenta[c]pyrazolo[1,5-a]pyridin-9-yl)ethyl]acetamide] | ≤ 100 nM | – | 159 to 160 °C
